Laboratory results: ChEMBL document CHEMBL4823299, “Design, synthesis, and biological evaluation of N-(4-substituted)-3-phenylisoxazolo[5,4-d]pyrimidin-4-amine derivatives as apoptosis-inducing cytotoxic agents” (Bioorg Med Chem Lett, 2021)
Calls of active or inactive are those of the source. The rule behind the calls is not given here.

How the values were obtained:
[1] = test system: Panel NCI-60 (60 carcinoma cell lines); experiment: Cytotoxicity against human NCI60 cells by SRB assay; assay type: functional, cell-based
BT-474 [2] = experiment: Induction of mitochondrial membrane potential loss in human BT-474 cells assessed as depolarised cells at 0.5 uM incubated for 24 hrs by […] staining based assay (reference value: 4.18%); assay type: functional
BT-474 [3] = experiment: Induction of apoptosis in human BT-474 cells assessed as reduced number of viable cells at 0.25 to 1 uM by phase-contrast microscopy; assay type: functional, cell-based; conditions: dose 0.25-1 µM
HCT-116 [4] = experiment: Growth of human HCT-116 cells relative to control
KM12 [5] = experiment: Growth of human KM12 cells relative to control
BT-474 [6] = experiment: Induction of apoptosis in human BT-474 cells assessed as necrotic cells at 0.5 uM incubated for 24 hrs by annexin-V/FITC-PI staining assay (reference value: 0.24%); assay type: functional
NCI-H460 [7] = experiment: Growth inhibition of human NCI-H460 cells; assay type: functional
BT-474 [8] = experiment: Induction of mitochondrial membrane potential loss in human BT-474 cells assessed as polarised cells at 1 uM incubated for 24 hrs by […] staining based assay (reference value: 93.95%); assay type: functional
MDA-MB-435 [9] = experiment: Growth of human MDA-MB-435 cells relative to control
HT-29 [10] = experiment: Growth of human HT-29 cells relative to control
SR [11] = experiment: Growth of human SR cells relative to control
SNB-75 [12] = experiment: Growth inhibition of human SNB75 cells; assay type: functional
HCT-116 [13] = experiment: Growth inhibition of human HCT-116 cells; assay type: functional
BT-474 [14] = experiment: Inhibition of colony formation in human BT-474 cells by clonogenic assay; assay type: functional, cell-based
K562 [15] = experiment: Growth inhibition of human K562 cells; assay type: functional
SNB-75 [16] = experiment: Growth of human SNB75 cells relative to control
BT-474 [17] = experiment: Induction of apoptosis in human BT-474 cells assessed as necrotic cells at 1 uM incubated for 24 hrs by annexin-V/FITC-PI staining assay (reference value: 0.24%); assay type: functional
BT-474 [18] = experiment: Induction of mitochondrial membrane potential loss in human BT-474 cells assessed as polarised cells at 0.25 uM incubated for 24 hrs by […] staining based assay (reference value: 93.95%); assay type: functional
BT-474 [19] = experiment: Induction of apoptosis in human BT-474 cells assessed as cell shrinkage at 0.25 to 1 uM by phase-contrast microscopy; assay type: functional, cell-based; conditions: dose 0.25-1 µM
BT-474 [20] = experiment: Induction of apoptosis in human BT-474 cells assessed as viable cells at 1 uM incubated for 24 hrs by annexin-V/FITC-PI staining assay (reference value: 88.49%); assay type: functional; conditions: read-out: Activity
BT-474 [21] = experiment: Induction of apoptosis in human BT-474 cells assessed as late apoptotic cells at 1 uM incubated for 24 hrs by annexin-V/FITC-PI staining assay (reference value: 1.83%); assay type: functional
SR [22] = experiment: Growth inhibition of human SR cells; assay type: functional
BT-474 [23] = experiment: Induction of ROS production in human BT-474 cells assessed as increase in intracellular ROS level incubated for 24 hrs by DCF-DA staining based assay; assay type: functional, cell-based; conditions: dose 0.25-1 µM
BT-474 [24] = experiment: Induction of mitochondrial membrane potential loss in human BT-474 cells assessed as polarised cells at 0.5 uM incubated for 24 hrs by […] staining based assay (reference value: 93.95%); assay type: functional
BT-474 [25] = experiment: Cytotoxicity against human BT-474 cells assessed as cell growth inhibition by MTT assay; assay type: functional, cell-based
BT-474 [26] = experiment: Induction of mitochondrial membrane potential loss in human BT-474 cells assessed as depolarised cells at 0.25 uM incubated for 24 hrs by […] staining based assay (reference value: 4.18%); assay type: functional
BT-474 [27] = experiment: Induction of apoptosis in human BT-474 cells assessed as fragmented nucleus by measuring bright clue colour at 0.25 to 1 uM incubated for 24 hrs by DAPI staining based fluorescence microscope assay; assay type: functional, cell-based; conditions: dose 0.25-1 µM
LOX IMVI [28] = experiment: Growth of human LOX IMVI cells relative to control
KM12 [29] = experiment: Growth inhibition of human KM12 cells; assay type: functional
MCF7 [30] = experiment: Growth inhibition of human MCF7 cells; assay type: functional
MCF7 [31] = experiment: Growth of human MCF7 cells relative to control
HT-29 [32] = experiment: Growth inhibition of human HT-29 cells; assay type: functional
BT-474 [33] = experiment: Induction of apoptosis in human BT-474 cells assessed as early apoptotic cells at 1 uM incubated for 24 hrs by annexin-V/FITC-PI staining assay (reference value: 9.44%); assay type: functional
BT-474 [34] = experiment: Induction of apoptosis in human BT-474 cells assessed as late apoptotic cells at 0.5 uM incubated for 24 hrs by annexin-V/FITC-PI staining assay (reference value: 1.83%); assay type: functional
MDA-MB-435 [35] = experiment: Growth inhibition of human MDA-MB-435 cells; assay type: functional
NCI-H460 [36] = experiment: Growth of human NCI-H460 cells relative to control
BT-474 [37] = experiment: Induction of apoptosis in human BT-474 cells assessed as pyknotic and chromatin condensation by measuring bright clue colour at 0.25 to 1 uM incubated for 24 hrs by DAPI staining based fluorescence microscope assay; assay type: functional, cell-based; conditions: dose 0.25-1 µM
BT-474 [38] = experiment: Induction of mitochondrial membrane potential loss in human BT-474 cells assessed as depolarised cells at 1 uM incubated for 24 hrs by […] staining based assay (reference value: 4.18%); assay type: functional
BT-474 [39] = experiment: Induction of apoptosis in human BT-474 cells assessed as cellular morphological changes at 0.25 to 1 uM incubated for 24 hrs by AO/EB staining assay; assay type: functional, cell-based; conditions: dose 0.25-1 µM
LOX IMVI [40] = experiment: Growth inhibition of human LOX IMVI cells; assay type: functional
BT-474 [41] = experiment: Induction of apoptosis in human BT-474 cells assessed as […] at 0.25 to 1 uM by phase-contrast microscopy; assay type: functional, cell-based; conditions: dose 0.25-1 µM
BT-474 [42] = experiment: Induction of apoptosis in human BT-474 cells assessed as horseshoe-shaped nuclei by measuring bright clue colour at 0.25 to 1 uM incubated for 24 hrs by DAPI staining based fluorescence microscope assay; assay type: functional, cell-based; conditions: dose 0.25-1 µM
RPMI-8226 [43] = experiment: Growth of human RPMI-8226 cells relative to control
BT-474 [44] = experiment: Induction of apoptosis in human BT-474 cells assessed as nuclear shrinkage by measuring bright clue colour at 0.25 to 1 uM incubated for 24 hrs by DAPI staining based fluorescence microscope assay; assay type: functional, cell-based; conditions: dose 0.25-1 µM
K562 [45] = experiment: Growth of human K562 cells relative to control
BT-474 [46] = experiment: Induction of apoptosis in human BT-474 cells assessed as viable cells at 0.5 uM incubated for 24 hrs by annexin-V/FITC-PI staining assay (reference value: 88.49%); assay type: functional; conditions: read-out: Activity
RPMI-8226 [47] = experiment: Growth inhibition of human RPMI-8226 cells; assay type: functional
BT-474 [48] = experiment: Induction of apoptosis in human BT-474 cells assessed as early apoptotic cells at 0.5 uM incubated for 24 hrs by annexin-V/FITC-PI staining assay (reference value: 9.44%); assay type: functional
[49] = read-out: LC50 (the source's name)

## c1ccc(-c2noc3ncnc(Nc4ccc(N5CCOCC5)cc4)c23)cc1
[1]
  Activity: Active

## COc1cccc(COc2ccc(Nc3ncnc4onc(-c5ccccc5)c34)cc2)c1
[1]
  Activity: Active

## Fc1ccccc1Nc1ncnc2onc(-c3ccccc3)c12
[1]
  Activity: Active

## FC(F)(F)Oc1ccc(Oc2ccc(Nc3ncnc4onc(-c5ccccc5)c34)cc2)cc1
[1]
  Activity: Active

## CCOC(=O)c1ccc(Oc2ccc(Nc3ncnc4onc(-c5ccccc5)c34)cc2)cc1
[1]
  Activity: Active

## Clc1ccc(Oc2ccc(Nc3ncnc4onc(-c5ccccc5)c34)cc2)c(Cl)c1
[1]
  Activity: Active

## Clc1cccc(Nc2ncnc3onc(-c4ccccc4)c23)c1
[1]
  Activity: Active

## c1ccc(-c2noc3ncnc(Nc4ccc(Oc5ccc6ccccc6c5)cc4)c23)cc1
[1]
  Activity: Active

## Brc1ccc(COc2ccc(Nc3ncnc4onc(-c5ccccc5)c34)cc2)cc1
[1]
  Activity: Active

## Fc1ccc(COc2ccc(Nc3ncnc4onc(-c5ccccc5)c34)cc2)cc1
[1]
  Activity: Active

## Cc1cc(C)cc(Oc2ccc(Nc3ncnc4onc(-c5ccccc5)c34)cc2)c1
[1]
  Activity: Active

## COc1ccc(Nc2ncnc3onc(-c4ccccc4)c23)cc1
[1]
  Activity: Active

## c1ccc(Nc2ncnc3onc(-c4ccccc4)c23)cc1
[1]
  Activity: Active

## O=c1cc(Cc2ccc(Oc3ccc(Nc4ncnc5onc(-c6ccccc6)c45)cc3)cc2)c2ccccc2o1
[1]
  Activity: Active

## Clc1ccc(COc2ccc(Nc3ncnc4onc(-c5ccccc5)c34)cc2)cc1
[1]
  Activity: Active

## Clc1ccccc1Oc1ccc(Nc2ncnc3onc(-c4ccccc4)c23)cc1
[1]
  Activity: Active

## COc1ccc(COc2ccc(Nc3ncnc4onc(-c5ccccc5)c34)cc2)cc1
[1]
  Activity: Active

## c1ccc(-c2noc3ncnc(Nc4ccc(Oc5cccc6ccccc56)cc4)c23)cc1
[1]
  Activity: Active

## c1ccc(COc2ccc(Nc3ncnc4onc(-c5ccccc5)c34)cc2)cc1
[1]
  Activity: Active

## Clc1ccc(COc2ccc(Nc3ncnc4onc(-c5ccccc5)c34)cc2)c(Cl)c1
[1]
  Activity: Active

## c1ccc(Oc2ccc(Nc3ncnc4onc(-c5ccccc5)c34)cc2)cc1
[1]
  Activity: Active

## Cc1ccc(COc2ccc(Nc3ncnc4onc(-c5ccccc5)c34)cc2)cc1
[1]
  Activity: Active

## Fc1cccc(COc2ccc(Nc3ncnc4onc(-c5ccccc5)c34)cc2)c1
BT-474 [2]
  Activity: 16.12%
BT-474 [3]
  Activity: Active
HCT-116 [4]
  growth, % of control: 8.15%
KM12 [5]
  growth, % of control: 9.57%
BT-474 [6]
  Activity: 1.06%
NCI-H460 [7]
  GI50: 50 nM
  TGI: 28400 nM
NCI-H460 [7]; [49]
  CC50: > 100000 nM
BT-474 [8]
  Activity: 75.08%
MDA-MB-435 [9]
  growth, % of control: -54.67%
HT-29 [10]
  growth, % of control: 3.86%
SR [11]
  growth, % of control: 26.06%
SNB-75 [12]
  GI50: 26 nM
  TGI: 386 nM
SNB-75 [12]; [49]
  CC50: > 100000 nM
HCT-116 [13]
  GI50: 58 nM
  TGI: > 100000 nM
HCT-116 [13]; [49]
  CC50: > 100000 nM
BT-474 [14]
  Activity: Dose-Dependent Effect
K562 [15]
  GI50: 95 nM
  TGI: > 100000 nM
K562 [15]; [49]
  CC50: > 100000 nM
SNB-75 [16]
  growth, % of control: -34.93%
BT-474 [17]
  Activity: 1.55%
BT-474 [18]
  Activity: 92.79%
BT-474 [19]
  Activity: Active
BT-474 [20]
  viability at 1 µM: 63.3%
BT-474 [21]
  Activity: 7.19%
SR [22]
  GI50: 67 nM
  TGI: > 100000 nM
SR [22]; [49]
  CC50: > 100000 nM
BT-474 [23]
  Activity: Dose-Dependent Effect
BT-474 [24]
  Activity: 78.84%
BT-474 [25]
  IC50: 640 nM
BT-474 [26]
  Activity: 5.5%
BT-474 [27]
  Activity: Active
LOX IMVI [28]
  growth, % of control: 23.07%
KM12 [29]
  GI50: 80 nM
  TGI: 14800 nM
KM12 [29]; [49]
  CC50: > 100000 nM
[1]
  Activity: Active
MCF7 [30]
  GI50: 37 nM
  TGI: > 100000 nM
MCF7 [30]; [49]
  CC50: > 100000 nM
MCF7 [31]
  growth, % of control: 14.05%
HT-29 [32]
  GI50: 53 nM
  TGI: 11600 nM
HT-29 [32]; [49]
  CC50: > 100000 nM
BT-474 [33]
  Activity: 27.93%
BT-474 [34]
  Activity: 6.9%
MDA-MB-435 [35]
  GI50: 32 nM
NCI-H460 [36]
  growth, % of control: 2.61%
BT-474 [37]
  Activity: Active
BT-474 [38]
  Activity: 18.83%
BT-474 [39]
  Activity: Active
LOX IMVI [40]
  GI50: 949 nM
  TGI: > 100000 nM
LOX IMVI [40]; [49]
  CC50: > 100000 nM
BT-474 [41]
  Activity: Active
BT-474 [42]
  Activity: Active
RPMI-8226 [43]
  growth, % of control: 12.49%
BT-474 [44]
  Activity: Active
K562 [45]
  growth, % of control: 12.08%
BT-474 [46]
  viability at 0.5 µM: 64.9%
RPMI-8226 [47]
  GI50: 58 nM
  TGI: > 100000 nM
RPMI-8226 [47]; [49]
  CC50: > 100000 nM
BT-474 [48]
  Activity: 27.1%

## Clc1cccc(COc2ccc(Nc3ncnc4onc(-c5ccccc5)c34)cc2)c1
[1]
  Activity: Active

## Fc1ccc(Oc2ccc(Nc3ncnc4onc(-c5ccccc5)c34)cc2)cc1
[1]
  Activity: Active

## Brc1ccc(Oc2ccc(Nc3ncnc4onc(-c5ccccc5)c34)cc2)cc1
[1]
  Activity: Active

## c1ccc(-c2noc3ncnc(Nc4ccc(Oc5ccccc5-c5ccnc6ccccc56)cc4)c23)cc1
[1]
  Activity: Active

## O=C(O)CNc1ncnc2onc(-c3ccccc3)c12
[1]
  Activity: Active
